Experimental data as given in patent US20150253330A1, “PRE-SELECTION OF SUBJECTS FOR THERAPEUTIC TREATMENT WITH AN HSP90 INHIBITOR BASED ON HYPOXIC STATUS” (Synta Pharmaceuticals Corp., priority 2012, published 2015).
Entries after “also recorded” stand apart in the source; their conditions may differ.

Key:
[1] = tested on: locally advanced or MBC; assay: Phase 2 trial in metastatic breast cancer (MBC); type: in vivo, human
Experimental: Patients with locally advanced or MBC were treated with single agent of ganetespib at 200 mg/m^2 on a cycle of once weekly for 3 weeks, one week off, on a 28 day cycle. The primary endpoint of the trial was overall response rate using RECIST 1.1. Patients with HER2+ breast cancer were required to have received prior therapy with trastuzumab. No more than 3 lines of chemotherapy in the metastatic setting were permitted, but there was no limit on prior lines of hormone therapy. Patients were evaluated for response after 2 cycles. The trial used a Simon two-stage design requiring at least 3 responses among the first 22 patients, to allow expansion to a total of 40 patients. A total of 22 patients were treated with a median age of 51 years (38 to 70) and the following subtypes: 13 HER2+ (10 ER+/HER2+; 3 ER−/HER2+), 6 ER+/HER2−, and 3 ER−/PR−/HER2− (TNBC).

[2] = tested on: solid tumors; assay: Phase 2 study in solid tumors, twice-weekly infusion (safety, PK, response); type: in vivo, human
Description: Patients with solid tumors who had exhausted standard treatment options received ganetespib as a 1 hr infusion twice-weekly for 3 weeks (weeks) of a 28 day cycle until disease progression. Serial PK and pharmacodynamic samples were obtained during cycle 1. Safety assessments included frequency and grade of adverse events (AEs), laboratory parameters and ECG changes.

[3] = tested on: solid tumors; assay: Phase I dose escalation study, twice-weekly administration in patients with solid tumors; type: in vivo, human
Experimental: An open-label Phase 1 dose-escalation study in subjects with solid tumors was performed. The first cohort consisted of three subjects who received 2 mg/m^2 of ganetespib during a 1-hour infusion 2 times per week (e.g., [Monday, Thursday] or [Tuesday, Friday]) for three consecutive weeks followed by a 1 week dose-free interval. The first infusion for the first three subjects was staggered by a minimum of 5 days between subjects. This staggered enrollment scheme was followed for the first cohort only. Subjects tolerating ganetespib continued treatment past week 8 until disease progression as long as the re-treatment criteria continued to be met.
Subsequent cohorts were originally planned to receive escalating doses of 4, 7, 10, 14, 19, 25, 33, 40, and 48 mg/m^2, provided that the previous dose was well-tolerated during cycle 1 (week 1-4). The dose escalation scheme was updated to 25, 50, 75 and 100 mg/m^2, provided that the previous dose was well-tolerated during cycle 1. Following the completion of enrollment at 50 mg/m^2 twice per week, subsequent cohorts were to be treated at 100 mg/m^2 (100% increase above prior dose) and 120 mg/m^2 (20% increase above prior dose), with further dose increments to be approximately 20% over the previous dose level, until the maximum tolerated dose (MTD) was determined. Enrollment was completed at 100 mg/m^2 and the next doses planned were 120 mg/m^2 and 144 mg/m^2.
There had to be at least three evaluable subjects in a cohort before dose escalation could occur. […] Once a subject experienced a DLT the cohort was expanded to six subjects. If only 1 of 6 subjects experienced a DLT, further dose escalation was allowed. However, if 2 of 3 or 2 of 6 subjects experienced a DLT, dose escalation terminated.
A subject's duration of participation included a 2-week screening period and two 4-week treatment cycles totaling approximately 10 weeks. However, at the investigator's discretion, subjects tolerating ganetespib continued treatment past week 8 until disease progression.
The subjects in this study had histologically- or cytologically-confirmed non-hematological malignancy that was metastatic or unresectable. The subjects were documented to be refractory to, or were not candidates for, current standard therapy.
Ganetespib was formulated using 90% v/v PEG 300 and 10% v/v Polysorbate 80 at a concentration of 8 mg/mL and was packaged in a Type I glass amber vial, stoppered with a Flurotec-coated stopper, and sealed. […] The formulation was further diluted with 5% dextrose for injection in infusion container (DEHP-free 500 mL) to a concentration range of 0.02 to 1.2 mg/mL and administered via infusion tubing (DEHP-free) with a 0.22 micron end filter over an hour to the patient. The dosing solution once prepared was administered within 3 hours. Eligible subjects received the drug during a 1-hour infusion 2 times per week for 3 consecutive weeks followed by a 1-week dose-free interval. The amount of ganetespib administered depended upon the cohort to which the subject was assigned and the subject's body surface area (BSA).
A person with triple negative breast cancer (with Stage III invasive ductal carcinoma) from Example 1 enrolled in a Phase I dose escalation study of ganetespib. The patient's disease had progressed on 7 prior chemotherapeutic regimens. The patient was administered 144 mg/m^2 of ganetespib twice-weekly for 3 weeks, followed by 1 week dose-free. […] After 4 cycles, there was a documented 31% reduction in target lesion size (partial response). The treatment was interrupted due to brain metastases treated with whole brain radiation, but treatment with ganetespib resumed in cycle 5.

[4] = tested on: ECC12; assay: 72 hr viability by Syto60, gastric cell line; type: cell-based; details: Homo sapiens, Syto60 (lower), read-out: ganetespib IC50
[5] = tested on: advanced GIST; assay: Phase 2 study in gastrointestinal stromal tumors (GIST); type: in vivo, human
Experimental: Patients with advanced (e.g., metastatic or unresectable) GIST following failure of prior therapy, e.g., imatinib or sunitinib, received ganetespib (200 mg/m^2) as a 1 hour IV infusion once per week for 3 weeks of a 28 day cycle. GIST status was assessed at 8 weeks per RECIST, until progression. […] Hsp90 client protein levels were analyzed in biopsies pre-therapy and 24-48 h post-treatment with ganetespib in a subset of patients.

[6] = tested on: SUM149 inflammatory breast cancer (IBC) cells; assay: 24 hr viability assay, inflammatory breast cancer cells; type: cell-based; details: 24 hr after exposure, FIG. 2
Experimental: Ganetespib was assayed in inflammatory breast cancer (IBC), a rare but aggressive form of breast cancer distinct from the subtypes presented above.

[7] = 41 of 54 enrolled patients assessable for response
[8] = one TNBC patient, 144 mg/m^2 twice-weekly for 3 weeks, 1 week dose-free

In the case of `CC(C)c1cc(-c2nnc(O)n2-c2ccc3c(ccn3C)c2)c(O)cc1O` [ganetespib], the “CBR (CR + PR + SD > 6 months)” value ([1]; ER+/HER2− (N = 6)) is reported as 0, the CR ([1]; ER+/HER2− (N = 6)) is reported as 0 and the ORR ([1]; ER+/HER2− (N = 6)) is reported as 0. For the same molecule, the PR ([1]; ER+/HER2− (N = 6)) was 0, the “CBR (CR + PR + SD > 6 months)” value ([1]; HER2+ (N = 13)) was 2 (9%) and the CR ([1]; HER2+ (N = 13)) was 0. The ORR ([1]; HER2+ (N = 13)) was 2 (9%), the PR ([1]; HER2+ (N = 13)) was 2 and the “CBR (CR + PR + SD > 6 months)” value ([1]; TNBC (N = 3)) was 0. It also gave a CR ([1]; TNBC (N = 3)) of 0, an ORR ([1]; TNBC (N = 3)) of 0 and a PR ([1]; TNBC (N = 3)) of 0. The “CBR (CR + PR + SD > 6 months)” value ([1]; Total (N = 22)) was 2 (9%), the CR ([1]; Total (N = 22)) was 0 and the PR ([1]; Total (N = 22)) was 2 (9%). For the same molecule, the ORR ([1]; Total (N = 22), 200 mg/m^2 once weekly for 3 weeks, one week off) was 2 (9%), the Tolerability ([1]; single agent, expected GI toxicity mild in nature and manageable) was “well tolerated” and the “NSCLC patients with durable SD, with tumor shrinkage” value ([2]; 6 months of treatment) was 2 patients. For the same molecule, the “DLTs (elevated transaminases)” value ([2]; in the 10 and 144 mg/m^2 cohorts) was “Two”, the Volume of distribution ([2]; patients) was “greater than total body water” and the PK linearity ([2]; patients, doses from 2-144 mg/m^2) was “linear PK”. For the same molecule, the Accumulation in plasma ([2]; patients, twice-weekly dosing) was “no accumulation in plasma”, the Tolerability ([2]; twice-weekly administration) was “absence of severe liver, ocular, cardiac and renal toxicity; also recorded: well-tolerated” and the “Response by RECIST in a patient with metastatic melanoma” value ([2]; twice-weekly dosing) was “confirmed durable PR”. For the same molecule, the “AEs reported in ≧20% of patients” value ([2]; twice-weekly, majority mild to moderate) was “fatigue, diarrhea, nausea, anemia, abdominal pain, constipation, anorexia, vomiting, and headache”, the “Confirmed partial responses, patient with melanoma” value [3, 7] was 1 patient and the “Confirmed partial responses, patient with triple negative breast cancer” value [3, 7] was 1 patient. For the same molecule, the “Patients who achieved stable disease” value [3, 7] was 15 patients, the Tolerability ([3]; one TNBC patient, 144 mg/m^2 twice-weekly) was “tolerated the treatment well with mild/moderate toxicities” and the “Reduction in target lesion size after 4 cycles (partial response)” value [3, 8] was 31%. For the same molecule, the “Response per RECIST after 2 cycles” value [3, 8] was “stable disease”, the IC50 [4] was 12 nM and the “Adverse events reported in >20% of patients” value ([5]; 200 mg/m^2 once per week for 3 weeks of a 28 day cycle, generally NCI CTC grade 1-2) was “diarrhea, fatigue, nausea, vomiting, increased alkaline phosphatase, headache, insomnia, and abdominal pain”. For the same molecule, the “Evaluable patients with SD” value ([5]; 4 SD 16 weeks, 8 SD≧8 weeks) was 12/23, the “Client proteins in paired tumor biopsies” value ([5]; biopsies from 4 patients, pre-therapy and 24-48 h post-treatment) was “did not show prolonged inhibition of activated KIT or its downstream pathways” and the Tolerability ([5]; once-weekly dosing, no evidence of severe liver, ocular, cardiac or renal toxicity) was “well-tolerated”. The “Anticancer activity against SUM149 cells” value [6] was “considerable anticancer activity”.
